Measurements as given in ChEMBL document CHEMBL1128058, “Synthesis of novel iodinated radioligands with high affinity and selectivity for CCK-B/gastrin receptors” (Bioorg Med Chem Lett, 1995).

Legend:
[1] = target: T1, Cholecystokinin receptor type A (Rattus norvegicus, UniProt P30551); experiment: Binding affinity towards CCK-A receptor in rat pancreas membrane using Hunter labelled CCK-8S assay; assay type: cell membranes
T1 sequence (P30551 whole entry): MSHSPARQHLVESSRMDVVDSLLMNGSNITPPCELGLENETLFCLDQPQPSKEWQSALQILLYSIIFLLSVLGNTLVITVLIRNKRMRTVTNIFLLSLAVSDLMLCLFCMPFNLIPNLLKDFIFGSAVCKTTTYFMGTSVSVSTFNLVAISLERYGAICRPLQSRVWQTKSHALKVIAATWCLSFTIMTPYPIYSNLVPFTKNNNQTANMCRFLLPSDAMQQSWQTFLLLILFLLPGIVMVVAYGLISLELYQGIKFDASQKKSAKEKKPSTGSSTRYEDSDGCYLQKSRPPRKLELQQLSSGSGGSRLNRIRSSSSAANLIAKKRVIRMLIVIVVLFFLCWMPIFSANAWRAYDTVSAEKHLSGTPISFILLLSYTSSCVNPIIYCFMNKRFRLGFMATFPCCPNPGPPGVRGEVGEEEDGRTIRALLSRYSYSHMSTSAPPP

[2] = target: T2, Gastrin/cholecystokinin type B receptor (Mus musculus, UniProt P56481); experiment: Binding affinity towards CCK-B receptor in mouse cerebral cortex membrane using [125I]bolton assay; assay type: cell membranes
T2 sequence (P56481 whole entry): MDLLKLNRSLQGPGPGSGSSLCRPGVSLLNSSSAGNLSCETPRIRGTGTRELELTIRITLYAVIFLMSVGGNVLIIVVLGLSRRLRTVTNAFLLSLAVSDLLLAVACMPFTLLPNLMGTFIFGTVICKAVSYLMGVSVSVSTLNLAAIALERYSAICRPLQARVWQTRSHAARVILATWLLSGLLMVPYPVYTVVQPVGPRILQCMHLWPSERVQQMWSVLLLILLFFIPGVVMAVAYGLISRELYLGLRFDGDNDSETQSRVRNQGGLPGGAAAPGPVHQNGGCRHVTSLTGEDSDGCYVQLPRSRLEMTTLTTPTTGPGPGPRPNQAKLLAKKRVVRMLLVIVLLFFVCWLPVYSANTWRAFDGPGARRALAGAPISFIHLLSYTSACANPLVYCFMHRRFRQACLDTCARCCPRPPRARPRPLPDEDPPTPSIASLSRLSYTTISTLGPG

Compound: C[C@](Cc1c[nH]c2ccccc12)(NC(=O)OC1C2CC3CC(C2)CC1C3)C(=O)N[C@@H](CC(=O)O)Cc1ccc(N=[N+]=[N-])c(I)c1 (some centres undefined)
- Ki [1]: 392 nM
- Ki [2]: 0.88 nM

Compound: C[C@](Cc1c[nH]c2ccccc12)(NC(=O)OC1C2CC3CC(C2)CC1C3)C(=O)N[C@@H](CC(=O)O)Cc1ccc(N)c(I)c1 (some centres undefined)
- Ki [1]: 158 nM
- Ki [2]: 0.52 nM
